Data on four compounds can be found in patent US20260224714A1, “CYCLING LYSOSOMAL TARGETING ANTIBODY CONJUGATES” (Lycia Therapeutics, Inc., priority 2023, published 2026).

SMILES strings stand for the structures.

Holding throughout (type): cell-based
Test [1] has as its system human IgE. Briefly: Degradation of initial and subsequent dose of target in HepG2 cells (Example 12, Table 30). To be noted: normalized to unconjugated; for Normalized Fluorescence Post Wash Median Green: after wash, probe-conjugated IgE added for 4 hours, subsequent dose of target; for Normalized Fluorescence Precomplex Median Deep Red: precomplexed equimolar conjugate:IgE (cathepsin-cleavable quenched fluorescent probe) added for 2 hours, initial dose of target. How it is done:
(§1) The following experiments were performed with HepG2 hepatocellular carcinoma cells, grown in Eagle's Minimal Essential Media (EMEM) supplemented with 10% FBS and penicillin/streptomycin.
HepG2 cells (25,000) were plated in 96-well plates 48 hours before performing the experiment. On the day of the experiment, indicated conjugate was diluted in fresh EMEM as a 2× stock, and mixed with an equimolar stock of human IgE (Enzo Life Sciences, BPD-DIA-HE 1) conjugated to a cathepsin-cleavable quenched fluorescent probe. The precomplexed conjugate:IgE mixture was incubated at 37 degrees Celsius for 30 minutes. Media from HepG2 was removed, and conjugate:IgE mixture in EMEM was added to cells for 2 hours. Cells were then placed on ice to prevent trafficking/recycling during wash steps, and washed once with DPBS, once with sodium acetate buffer (20 mM, 150 mM NaCl, pH 5.2), once with Earle's Balanced Salt Solution (EBSS) adjusted to pH 2.5, and once again with DPBS, to remove conjugate from media and cell surface. Afterwards, 100 ul of prewarmed (to 37 degrees Celsius) EMEM with cathepsin-cleavable quenched fluorescent probe-conjugated IgE was added to cells for 4 hours before washing with DPBS and detaching with 0.25% Trypsin/EDTA. Cells were pelleted in 96-well conical bottom plates, washed once with FACS Buffer with BSA (Rockland Immunochemicals), resuspended FACS Buffer with BSA and median 488 and 647 intensity was analyzed by flow cytometry. Delivery of labelled IgE to the lysosome and subsequent cleavage of initial precomplexed IgE was measured by analyzing median cellular 647 intensity, while cleavage of the post wash addition of IgE, which should only be degraded by recycling conjugates which released the first round of precomplexed IgE, was analyzed by median cellular 488 intensity. HepG2 cells were treated with human IgE (Enzo Life Sciences, BPD-DIA-HE1) conjugated to a cathepsin-cleavable quenched deep red (647) fluorescent probe precomplexed to conjugate fortwo hours, then washed, and fresh media with IgE conjugated to a green (488) cathepsin-cleavable fluorescent probe was then added without conjugate. […] Fluorescence values were measured by FACS and normalized to unconjugated parent protein. Reported values are the average of the values of two replicate wells.

The test system of test [2] is Alexa Fluor647 labelled human IgE. Briefly: Uptake assay: internalization of Alexa Fluor 647 labelled IgE in wild type HepG2 cells (Example 6). To be noted: equimolar conjugate and AF647 IgE, 2 hours, median cellular AF647 intensity by flow cytometry, normalized to unconjugated parent protein. How it is done:
as §1
(§2) HepG2 cells (25,000) were plated in 96-well plates 48 hours before the experiment was performed. On the day of the experiment, indicated the conjugate was mixed with an equimolar stock of Alexa Fluor647 labelled human IgE (Enzo Life Sciences, BPD-DIA-HE 1) in fresh EMEM as a 600 nM stock. The precomplexed conjugate:IgE mixture was incubated at room temperature for 30 minutes. During the precomplexing step, media from HepG2 was removed, and 40 ul of EMEM with 1/100 Fc Receptor Blocking Solution (Biolegend Human TruStain FcX, 422302) was added. Cells incubated in the receptor blocking solution for 10 minutes while making serial dilutions (1:3) of conjugate:IgE stock solution in EMEM. 40 ul of the conjugate:IgE mixture in EMEM was then added to cells (six dilutions, with final concentrations ranging from 300 nM to 1.23 nM) for 2 hours before washing with DPBS and detaching with 0.25% Trypsin/EDTA. Cells were pelleted in 96-well conical bottom plates, washed once with FACS Buffer with BSA (Rockland Immunochemicals), and resuspended in FACS Buffer with BSA. Uptake of fluorescently labelled IgE was measured by analyzing median cellular AF647 intensity by flow cytometry.
(§3) Cells were incubated with equimolar ratio of conjugate and AF647 IgE at indicated concentrations, with data normalized to unconjugated parent protein (Oma S35HWY57H-LC).
A general note: A flow cytometer gives signals particle by particle.

For test [3], the system named is LysoLight-labelled human IgE. Briefly: Lysosomal degradation of LysoLight-labelled IgE in HepG2 cells, live cell imaging (Example 7). To be noted: equimolar conjugate:LysoLight IgE, area under the curve of deep red fluorescence over three days, normalized to unconjugated parent protein. How it is done:
as §1
HepG2 cells (15,000) were plated in 96-well plates 72 hours before performing the experiment. On the day of the experiment, indicated the conjugate was diluted in fresh EMEM and mixed with an equimolar stock of LysoLight-labelled human IgE (Enzo Life Sciences, BPD-DIA-HE1), at 200 nM of each compound. The precomplexed conjugate:IgE mixture was incubated at room temperature for 30 minutes. During the precomplexing step, media from HepG2 was removed, and 40 ul of EMEM with 1/100 Fc Receptor Blocking Solution (Biolegend Human TruStain FcX, 422302) was added. Cells incubated in the receptor blocking solution for 10 minutes while making serial dilutions (1:3) of conjugate:IgE stock solution in EMEM. 40 ul of the conjugate:IgE mixture in EMEM was then added to cells (five dilutions, with final concentrations ranging from 100 nM to 1.23 nM). Cells were placed in an IncuCyte Live-Cell Analysis System (Sartorius) for long term live cell imaging analysis (10× magnification, 3 images per well). One hour after addition of compound, image acquisition to measure red fluorescence from the LysoLight probe was started, with further Images collected every hour for 72 hours. Fluorescence of the LysoLight probe only occurs when cleaved by lysosomal cathepsin proteases, confirming lysosomal delivery and degradation of target. After 72 hours, mean red fluorescence was measured for each time point, and the area under the curve of fluorescence overtime was used to measure total degradation over the 3-day time period.

In test [4] the test system is HepG2 cells. Briefly: Externalization of conjugates from a cell following internalization (cycling), high-throughput format (Example 11). To be noted: 50 nM conjugate 1 hour, stringent washes, Alexa Fluor 647-labelled a-human IgG 1 hour, FACS, normalized to unconjugated parent protein, average of two replicate wells. How it is done: as §1
The method was also adapted to a high-throughput format. In this assay, 25,000 HepG2 cells were plated in 96-well plates 48 hours before performing the experiment. The day of the experiment, cells were incubated with conjugate at indicated concentrations for 1 hour. Cells were then placed on ice to prevent trafficking/recycling during wash steps, and washed once with DPBS, once with sodium acetate buffer (20 mM, 150 mM NaCl, pH 5.2), once with Earle's Balanced Salt Solution (EBSS) adjusted to pH 2.5, and once again with DPBS, to remove conjugate from media and cell surface. Afterwards, 100 ul of prewarmed (to 37° C.) EMEM with 1 μg/ml of human a-IgG antibody conjugated to Alexa Fluor647 fluorophores was added to cells for 1 hour before washing with DPBS and detaching with 0.25% Trypsin/EDTA. Cells were pelleted in 96-well conical bottom plates, washed once with FACS Buffer with BSA (Rockland Immunochemicals), resuspended FACS Buffer with BSA and median AF647 intensity was analyzed by flow cytometry. The amount of conjugate capable of cycling to the cell surface (being externalized from the cell) and binding to the Alexa Fluor647 labelled α-IgG was measured by analyzing median cellular 647 fluorescence intensity by flow cytometry. […]. Reported values are the average of the values of two replicate wells.

In test [5] the test system is Alexa Fluor647 labelled human IgE. Kind of test: Uptake assay: internalization of Alexa Fluor 647 labelled IgE in ASGPR1/2 KO HepG2 cells (Example 6). To be noted: equimolar conjugate and AF647 IgE, normalized to unconjugated parent protein. How it is done:
as §1, §2, §3

For test [6], the system named is recombinant IgE. Briefly: Degradation of super-stoichiometric levels of target in HepG2 cells (Example 13, Table 31). To be noted: 1 nM conjugate and 25 nM IgE for three days, (A-B)/C IgE depleted relative to conjugate, average of two replicate wells. How it is done: as §1
For evaluation of compounds in a high throughput format, 25,000 HepG2 cells were plated in a 96-well plate. The following day, 50 ul of 1 nM conjugate and 25 nM recombinant IgE in EMEM were added to the cells. 50 ul of the initial stock of conjugate:IgE was saved to quantify for an initial time point. Three days later, the media was collected from cells, and both initial and 72 hour time points were quantified for IgE concentration using the MSD assay.
HepG2 cells were incubated in media containing 1 nM conjugate and 25 nM IgE for three days. Concentrations of IgE at beginning and end of experiment were quantified by ELISA-based assay. Molar equivalents of IgE depleted relative to conjugate added are shown, calculated as (A-B)/C, where A is the initial concentration of IgE, B is the concentration of IgE at day three, and C is the concentration of conjugate. Reported values are the average of the values of two replicate wells.

As for `CC(=O)N[C@@H]1[C@@H](O)[C@@H](O)[C@@H](CO)O[C@@H]1CCCOCCOCCNC(=O)NCCCC(CCCNC(=O)NCCOCCOCCC[C@H]1O[C@H](CO)[C@H](O)[C@H](O)[C@H]1NC(C)=O)(CCCNC(=O)NCCOCCOCCC[C@H]1O[C@H](CO)[C@H](O)[C@H](O)[C@H]1NC(C)=O)NC(=O)NCCOCCOCCOCCNC(=O)CBr` [Compound 2321], in test [1], the “Normalized Fluorescence Post Wash Median Green” value was 3.7 and the “Normalized Fluorescence Precomplex Median Deep Red” value was found to be 4.0. Further, in test [2], the “Normalized Fluorescence 3.7 nM WT” value turned out to be 80.7 and the “Normalized Fluorescence 100 nM WT” value was 320.7. Further, in test [3], the “Normalized Fluorescence 3.7 nM” value was determined as 13.2 and the “Normalized Fluorescence 100 nM” value was determined as 4.1. In addition, the “Normalized Fluorescence” value in test [4] came out at 49.3. Further, the “Normalized Fluorescence 100 nM ASGPR KO” value in test [5] came out at 1.1. The “Average Degradation (Molar equivalents)” value in test [6] came to 2.4 Molar equivalents.

As to `CCC[C@H]1O[C@H](COC)[C@H](O)[C@H](O)[C@H]1Nc1nccc(OCCOCCOCCNC(=O)NCCCC(CCCNC(=O)NCCOCCOCCOc2ccnc(N[C@@H]3[C@@H](O)[C@@H](O)[C@@H](COC)O[C@@H]3CCC)n2)(CCCNC(=O)NCCOCCOCCOc2ccnc(N[C@@H]3[C@@H](O)[C@@H](O)[C@@H](COC)O[C@@H]3CCC)n2)NC(=O)CCOCCOCCOCCNS(=O)(=O)c2ccc(N3C(=O)C=CC3=O)cc2)n1` [Compound 2326], in test [1], the “Normalized Fluorescence Post Wash Median Green” value came to 4.1 and the “Normalized Fluorescence Precomplex Median Deep Red” value worked out at 4.1. Also, in test [2], the “Normalized Fluorescence 3.7 nM WT” value is 89.7 and the “Normalized Fluorescence 100 nM WT” value is on record as 287.9. In addition, in test [3], the “Normalized Fluorescence 3.7 nM” value is 17.2 and the “Normalized Fluorescence 100 nM” value was found to be 3.7. Besides, the “Normalized Fluorescence” value in test [4] was 57.7. Moreover, the “Normalized Fluorescence 100 nM ASGPR KO” value in test [5] turned out to be 1.1. Further, the “Average Degradation (Molar equivalents)” value in test [6] was found to be 9.0 Molar equivalents.

As for `O=C(CCOCCOCCOCCNS(=O)(=O)c1ccc(N2C(=O)C=CC2=O)cc1)NC(CCCNC(=O)NCCOCCOCCOCc1cn([C@H]2[C@H]3OC[C@](CO)(O3)[C@H](O)[C@@H]2O)nn1)(CCCNC(=O)NCCOCCOCCOCc1cn([C@H]2[C@H]3OC[C@](CO)(O3)[C@H](O)[C@@H]2O)nn1)CCCNC(=O)NCCOCCOCCOCc1cn([C@H]2[C@H]3OC[C@](CO)(O3)[C@H](O)[C@@H]2O)nn1` [Compound 2328], in test [1], the “Normalized Fluorescence Post Wash Median Green” value is 1.8 and the “Normalized Fluorescence Precomplex Median Deep Red” value amounted to 2.4. In addition, in test [2], the “Normalized Fluorescence 3.7 nM WT” value turned out to be 29.7 and the “Normalized Fluorescence 100 nM WT” value was 146.5. For the same compound, in test [3], the “Normalized Fluorescence 3.7 nM” value came out at 4.4 and the “Normalized Fluorescence 100 nM” value is 2.5. Also, the “Normalized Fluorescence” value in test [4] was 15.1. In test [5], the “Normalized Fluorescence 100 nM ASGPR KO” value was determined as 1.1. The “Average Degradation (Molar equivalents)” value in test [6] is −0.3 Molar equivalents.

Turning to `O=C(CCOCCOCCOCCNS(=O)(=O)c1ccc(N2C(=O)C=CC2=O)cc1)NC(CCCNC(=O)NCCOCCOCCOC[C@@H]1CN([C@H]2CO[C@H](CO)[C@H](O)[C@@H]2O)C(=O)O1)(CCCNC(=O)NCCOCCOCCOC[C@@H]1CN([C@H]2CO[C@H](CO)[C@H](O)[C@@H]2O)C(=O)O1)CCCNC(=O)NCCOCCOCCOC[C@@H]1CN([C@H]2CO[C@H](CO)[C@H](O)[C@@H]2O)C(=O)O1` [Compound 2306], in test [1], the “Normalized Fluorescence Post Wash Median Green” value is listed as 2.4 and the “Normalized Fluorescence Precomplex Median Deep Red” value is given as 2.5. Also, in test [2], the “Normalized Fluorescence 3.7 nM WT” value is 31.0 and the “Normalized Fluorescence 100 nM WT” value worked out at 164.6. For the same compound, in test [3], the “Normalized Fluorescence 3.7 nM” value was found to be 5.6 and the “Normalized Fluorescence 100 nM” value came out at 1.8. The “Normalized Fluorescence” value in test [4] came out at 23.1. Also, the “Normalized Fluorescence 100 nM ASGPR KO” value in test [5] is 1.1. In addition, the “Average Degradation (Molar equivalents)” value in test [6] worked out at 1.8 Molar equivalents.
